A short description of the data set: solvent system method: total amount of ibuprofen released from the LDH. In kind it is physicochemical. As to conditions: 200 mg dose of ibuprofen; 0.05M HCl 50 mL, 15 min.

The structures appear in SMILES notation.

Protocol: This method determines the total amount of ibuprofen that is released from the LDH matrix.
A sample is then removed for analysis to determine the total amount of ibuprofen (dissolved and undissolved) which is released into the HCl solution. Further dilution is conducted as required.
Samples of the of the reaction solution were removed and used to determine the amount of ibuprofen released by each of the modifier systems using both the solvent system method and the solubility method described above.

Take `CC(C)Cc1ccc(C(C)C(=O)O)cc1` (stereo not shown) [Ibuprofen free acid]: the “TOTAL AMOUNT OF IBUPROFEN RELEASED FROM THE LDH AS DETERMINED USING THE SOLVENT METHOD” value came to 95%.
